Here are results for two compounds from patent US7645752B2, “Sulfonyl substituted 1H-indoles as ligands for the 5-hydroxytryptamine receptors” (Wyeth LLC, priority 2006, dated 2010).

Structures are written as SMILES. Where two headings read alike, the source gives them in different places.

In one experiment the target is human 5-HT2A receptor (Homo sapiens, UniProt P28223). The experiment can be described thus: 5-HT2A FLIPR assay, antagonism of DOI calcium response in CHO cells.
In a further experiment the target is T1, human hNET (Homo sapiens, UniProt P23975).
T1 construct: expressed in transfected cells
The experiment can be described thus: Norepinephrine (NE) uptake assay in MDCK-Net6 cells. Type of experiment: cell-based.

For experiment [1], the target named is T2, human cloned 5-HT6 receptors (Homo sapiens, UniProt P50406).
T2 construct: expressed in transfected cells; host or cells: HeLa cells
As to the kind of experiment: 5-HT6 binding affinity, [3H]-LSD displacement on membranes of Hela cells. In a few lines:
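Filter-bound radioactivity counted by scintillation. Binding at varying test-compound concentrations expressed as percent of specific binding without compound and plotted log % bound versus log concentration.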

For experiment [2] the following is noted: background statement; cited from earlier work.

T2 sequence (P50406 whole entry): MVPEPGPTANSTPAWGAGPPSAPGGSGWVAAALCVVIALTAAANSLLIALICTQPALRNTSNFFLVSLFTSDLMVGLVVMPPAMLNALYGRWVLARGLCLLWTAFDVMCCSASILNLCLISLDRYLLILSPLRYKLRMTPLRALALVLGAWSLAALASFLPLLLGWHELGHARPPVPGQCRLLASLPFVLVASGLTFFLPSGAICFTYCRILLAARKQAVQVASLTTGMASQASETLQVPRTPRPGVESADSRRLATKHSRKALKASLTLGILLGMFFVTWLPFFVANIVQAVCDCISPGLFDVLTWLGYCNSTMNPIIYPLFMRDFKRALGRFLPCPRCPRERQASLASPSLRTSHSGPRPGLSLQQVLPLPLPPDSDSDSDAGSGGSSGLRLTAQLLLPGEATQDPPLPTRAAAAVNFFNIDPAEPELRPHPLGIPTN
Chain of human 5-HT2A receptor (P28223 whole entry): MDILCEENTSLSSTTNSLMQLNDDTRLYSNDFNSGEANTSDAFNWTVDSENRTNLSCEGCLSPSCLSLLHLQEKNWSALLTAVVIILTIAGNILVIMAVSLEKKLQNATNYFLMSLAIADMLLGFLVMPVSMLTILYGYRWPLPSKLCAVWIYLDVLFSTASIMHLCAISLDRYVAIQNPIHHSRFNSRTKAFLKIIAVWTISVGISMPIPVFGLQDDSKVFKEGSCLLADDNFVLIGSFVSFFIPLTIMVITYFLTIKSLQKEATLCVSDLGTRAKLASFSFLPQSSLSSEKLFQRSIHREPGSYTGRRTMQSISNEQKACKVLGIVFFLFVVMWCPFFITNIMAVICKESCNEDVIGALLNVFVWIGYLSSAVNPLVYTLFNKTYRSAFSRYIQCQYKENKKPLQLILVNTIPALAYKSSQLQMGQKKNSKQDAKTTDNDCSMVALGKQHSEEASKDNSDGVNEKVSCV
T1 sequence (P23975 whole entry): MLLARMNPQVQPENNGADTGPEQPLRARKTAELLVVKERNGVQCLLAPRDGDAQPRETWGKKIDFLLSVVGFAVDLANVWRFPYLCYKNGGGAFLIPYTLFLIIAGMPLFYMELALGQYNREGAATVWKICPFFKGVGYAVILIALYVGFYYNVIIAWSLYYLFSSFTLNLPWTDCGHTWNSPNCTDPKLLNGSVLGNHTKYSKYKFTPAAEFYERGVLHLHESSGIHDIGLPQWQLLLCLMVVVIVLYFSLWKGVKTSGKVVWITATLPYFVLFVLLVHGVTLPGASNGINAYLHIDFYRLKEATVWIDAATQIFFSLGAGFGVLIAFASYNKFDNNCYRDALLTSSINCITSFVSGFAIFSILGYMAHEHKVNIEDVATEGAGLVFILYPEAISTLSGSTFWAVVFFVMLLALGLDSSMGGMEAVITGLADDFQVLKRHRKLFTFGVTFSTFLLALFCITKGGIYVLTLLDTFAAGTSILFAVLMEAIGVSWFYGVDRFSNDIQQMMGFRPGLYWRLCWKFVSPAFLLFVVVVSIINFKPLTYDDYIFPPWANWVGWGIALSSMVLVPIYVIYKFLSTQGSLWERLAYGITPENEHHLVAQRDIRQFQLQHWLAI

Turning to `NCCc1cccc2[nH]cc(S(=O)(=O)c3ccccc3)c12` [Example 61, {2-[3-(phenylsulfonyl)-1H-indol-4-yl]ethyl}amine], the IC50 (in general, the concentration that inhibits the measured activity by half) on human 5-HT2A receptor amounted to 14000 nM; against human hNET, 961 nM. For the same compound, the inhibition (commonly the change of the read-out against control, counted positive when it falls) at 1 µM in experiment [1] (Table 1, 5-HT6 binding, at 1 micromole, read-out: % inhibition at 1 micromole) turned out to be 44%. Further, the inhibition constant Ki – broadly, a dissociation constant, usually derived from enzyme kinetics or from competition with a known ligand – is 993 nM in experiment [1] (Table 1, [3H]-LSD 3.0 nM, Hela cell membranes, read-out: Ki (nM) @ 5-HT6 receptor) and 993 nM in experiment [1] (Table 2, read-out: 5-HT6 Ki).

As to `CN1CCN2c3ccccc3Cc3ccccc3C2C1` (stereo not drawn) [Mianserin, reference compound], the “efficacy in hot flushes” value in experiment [2] is “had efficacy in treating hot flushes”.
